Experimental data reported in patent US7795299B2, “Neo-tanshinlactone and analogs as potent and selective anti-breast cancer agents” (The University of North Carolina at Chapel Hill, priority 2004, dated 2010).
≈ marks a conversion by molar mass, not a printed value. Where “and” joins values, the source holds several entries; their conditions need not be identical. Equal entries are not always repeated. Structures can show the parent of a compound that is named as a salt.

Experiments:
[1] = test system: LN-CaP (AR-dependent prostate cancer); assay: In vitro anticancer assay (SRB), LN-CaP; assay type: cell-based, human; conditions: for ED50, LN-CaP: concentration that reduces cell growth by 50%, 3 days in culture, SRB
Protocol: (§1) In Vitro Anticancer Assay (Nakanishi, Y. et al., J. Med. Chem. 2003, 46, 3185). All stock cultures were grown in T-25 flasks. Freshly trypsinized cell suspensions were seeded in 96-well microtiter plates at densities of 1500-7500 cells per well with compounds added from DMSO-diluted stock. After 3 days in culture, attached cells were fixed with cold 50% trichloroacetic acid and then stained with 0.4% sulforhodamine B (SRB). The absorbency at 562 nm was measured using a microplate reader after solubilizing the bound dye. The mean ED50 is the concentration of agent that reduces cell growth by 50% under the experimental conditions and is the average from at least three independent determinations that were reproducible and statistically significant (FIG. 2). The following human tumor cell lines were used in the assay: A549 (non small cell lung cancer), MCF-7 (estrogen receptor positive breast cancer), ZR-75-1 (estrogen receptor positive breast cancer), MDA-MB-231 (estrogen receptor negative breast cancer), HS 587-T (estrogen receptor negative breast cancer), SK− BR-3 (HER-2-overexpressing breast cancer), A431 (EGFRoverexpressing skin cancer), LN-CaP (AR-dependent prostate cancer), SW620 (colon cancer), PC-3 (prostate cancer), KB (nasopharyngeal carcinoma), KB-VIN (vincristine-resistant KB subline). All cell lines were obtained from the Lineberger Comprehensive Cancer Center (UNC-CH) or from ATCC (Rockville, Md.) and were cultured in RPMI-1640 medium supplemented with 25 mMHEPES, 0.25% sodium bicarbonate, 10% fetal bovine serum, and 100 μg/mL kanamycin.
(§2) Biological assay. All stock cultures are grown in T-25 flasks. Freshly trypsinized cell suspensions were seeded in 96-well microtitre plates at densities of 1500-7500 cells per well with compounds added from DMSO-diluted stock. After 3 days in culture, attached cells were fixed with cold 50% trichloroacetic acid and then stained with 0.4% sulforhodamine B (SRB). The absorbency at 562 nm was measured using a microplate reader after solubilizing the bound dye. The mean ED50 is the concentration of agent that reduces cell growth by 50% under the experimental conditions and is the average from at least three independent determinations that were reproducible and statistically significant. […]

[2] = test system: SW620 (colon cancer); assay: In vitro anticancer assay (SRB), SW620; assay type: cell-based, human; conditions: for ED50, SW620 / IC50: concentration that reduces cell growth by 50%, 3 days in culture, SRB; for IC50: Homo sapiens, SW-620, 72 h, read-out: ED50, SW620
Protocol: as §1
(§3) Biological assay. All stock cultures are grown in T-25 flasks. Freshly trypsinized cell suspensions were seeded in 96-well microtitre plates at densities of 1500-7500 cells per well with compounds added from DMSO-diluted stock. After 3 days in culture, attached cells were fixed with cold 50% trichloroacetic acid and then stained with 0.4% sulforhodamine B (SRB). The absorbency at 562 nm was measured using a microplate reader after solubilizing the bound dye. The mean ED50 is the concentration of agent that reduces cell growth by 50% under the experimental conditions and is the average from at least three independent determinations that were reproducible and statistically significant. The following human tumor cell lines were used in the assay: A549 (non-small cell lung cancer), MCF-7 (estrogen receptor positive breast cancer), ZR-75-1 (estrogen receptor positive breast cancer), MDA MB-231 (estrogen receptor negative breast cancer), HS 587-T (estrogen receptor negative breast cancer), SK-BR-3 (estrogen receptor negative, HER-2 over-expressing breast cancer), A431 (EGFR over-expressing skin cancer), LN-CaP (AR-dependent prostate cancer), SW620 (colon cancer), PC-3 (prostate cancer), KB (nasopharyngeal carcinoma), KB-VIN (Vincristine resistant KB subline). All cell lines were obtained from the Lineberg Cancer Center (UNC-CH) or from ATCC (Rockville, Md.) and were cultured in RPMI-1640 medium supplemented with 25 mM HEPES, 0.25% sodium bicarbonate, 10% fetal bovine serum, and 100 μg/mL kanamycin.

[3] = test system: A431 (EGFR over-expressing skin cancer); assay: In vitro anticancer assay (SRB), A431; assay type: cell-based, human; conditions: for ED50, A431 / IC50: concentration that reduces cell growth by 50%, 3 days in culture, SRB; for IC50: Homo sapiens, A-431, 72 h, read-out: ED50, A431
Protocol: as §1, §3

[4] = test system: MDA-MB-231 (estrogen receptor negative breast cancer); assay: In vitro anticancer assay (SRB), MDA-MB-231; assay type: cell-based, human
Protocol: (§4) All stock cultures were grown in T-25 flasks. Freshly trypsinized cell suspensions were seeded in 96-well microtiter plates at densities of 1500-7500 cells per well with compounds added from DMSO-diluted stock. After 3 days in culture, attached cells were fixed with cold 50% trichloroacetic acid and then stained with 0.4% sulforhodamine B (SRB). The absorbency at 562 nm was measured using a microplate reader after solubilizing the bound dye.
(§5) Biological assay. All stock cultures are grown in T-25 flasks. Freshly trypsinized cell suspensions were seeded in 96-well microtitre plates at densities of 1500-7500 cells per well with compounds added from DMSO-diluted stock. After 3 days in culture, attached cells were fixed with cold 50% trichloroacetic acid and then stained with 0.4% sulforhodamine B (SRB). The absorbency at 562 nm was measured using a microplate reader after solubilizing the bound dye.

[5] = test system: several human cancer cell lines; assay: Cytotoxic activity against several human tumor cell lines (panel, overall statements); assay type: cell-based
Protocol: as §1
(§6) Biological assay. All stock cultures are grown in T-25 flasks. Freshly trypsinized cell suspensions were seeded in 96-well microtitre plates at densities of 1500-7500 cells per well with compounds added from DMSO-diluted stock. After 3 days in culture, attached cells were fixed with cold 50% trichloroacetic acid and then stained with 0.4% sulforhodamine B (SRB). The absorbency at 562 nm was measured using a microplate reader after solubilizing the bound dye. […]

[6] = test system: ER+ human breast cancer (MCF-7 and ZR-75-1); assay: Comparison of potency and selectivity against ER+ breast cancer cell lines in vitro; assay type: cell-based
Protocol: as §1, §2

[7] = test system: A549 (non small cell lung cancer); assay: In vitro anticancer assay (SRB), A549; assay type: cell-based, human
Protocol: as §2, with “In Vitro Anticancer Assay (Nakanishi, Y. et al., J. Med. Chem. 2003, 46, 3185).” for “Biological assay.”, “were” for “are”, “microtiter” for “microtitre”, “significant (FIG. 2).” for “significant.”
(§7) Biological assay. […] The absorbency at 562 nm was measured using a microplate reader after solubilizing the bound dye. […]

[8] = test system: MCF-7 (estrogen receptor positive breast cancer); assay: In vitro anticancer assay (SRB), MCF-7; assay type: cell-based, human; conditions: for ED50, MCF-7 (ER+) / IC50: concentration that reduces cell growth by 50%, 3 days in culture, SRB; for IC50: Homo sapiens, MCF7, 72 h, read-out: ED50, MCF-7 (ER+)
Protocol: as §4, §5

[9] = test system: KB-VIN (vincristine-resistant KB subline); assay: In vitro anticancer assay (SRB), KB-VIN; assay type: cell-based, human; conditions: for ED50, KB-VIN: concentration that reduces cell growth by 50%, 3 days in culture, SRB
Protocol: as §1, §6

[10] = test system: HS 587-T (estrogen receptor negative breast cancer); assay: In vitro anticancer assay (SRB), HS 587-T; assay type: cell-based, human; conditions: concentration that reduces cell growth by 50%, 3 days in culture
Protocol: as §4, §5

[11] = test system: KB (nasopharyngeal carcinoma); assay: In vitro anticancer assay (SRB), KB; assay type: cell-based, human; conditions: for ED50, KB / IC50: concentration that reduces cell growth by 50%, 3 days in culture, SRB; for IC50: Homo sapiens, 72 h, read-out: ED50, KB
Protocol: as §1, §3

[12] = test system: SK-BR-3 (HER-2-overexpressing breast cancer); assay: In vitro anticancer assay (SRB), SK-BR-3; assay type: cell-based, human; conditions: for ED50, SK-BR-3 (ER−, HER2+) / IC50: concentration that reduces cell growth by 50%, 3 days in culture, SRB; for IC50: Homo sapiens, SK-BR-3, 72 h, read-out: ED50, SK-BR-3 (ER−, HER2+)
Protocol: as §1, §3

[13] = test system: ZR-75-1 (estrogen receptor positive breast cancer); assay: In vitro anticancer assay (SRB), ZR-75-1; assay type: cell-based, human; conditions: concentration that reduces cell growth by 50%, 3 days in culture; for IC50: Homo sapiens, ZR-75-1, 72 h, read-out: ED50, ZR-75-1 (ER+)
Protocol: as §4, §5

[14] = test system: PC-3 (prostate cancer); assay: In vitro anticancer assay (SRB), PC-3; assay type: cell-based, human; conditions: concentration that reduces cell growth by 50%, 3 days in culture
Protocol: as §2, with “In Vitro Anticancer Assay (Nakanishi, Y. et al., J. Med. Chem. 2003, 46, 3185).” for “Biological assay.”, “were” for “are”, “microtiter” for “microtitre”, “significant (FIG. 2).” for “significant.”
as §7

[15] = concentration that reduces cell growth by 50%, 3 days in culture, SRB
[16] = against ER+ (ER+ and HER-2++) breast cancer in vitro

Cc1cccc2c1ccc1c3occ(C)c3c(=O)oc21 [Compound 1, Neo-tanshinlactone]
activity against LN-CaP (in words) ([1]; AR-dependent prostate cancer cell line): essentially inactive | Percent inhibition at the test concentration (bracketed value), LN-CaP ([1]; at 10 μg/mL (Table 2)): 28-36% | ED50, LN-CaP [1]: > 10 mg/L | Percent inhibition at the test concentration (bracketed value), SW620 ([2]; at 10 μg/mL (Table 2)): 22% | ED50, SW620 [2]: > 10 mg/L | activity against A431 (in words) ([3]; EGFR overexpressing skin cancer cell line): essentially inactive | Percent inhibition at the test concentration (bracketed value), A431 ([3]; at 10 μg/mL (Table 2)): 35% | ED50, A431 [3]: > 10 mg/L | Percent inhibition at the test concentration (bracketed value), MDA-MB-231 ([4]; at 20 μg/mL (Table 1)): 17% | ED50, MDA-MB-231 (ER−) [4, 15]: 10 mg/L and 10.0 mg/L | ED50, MDA-MB-231 (ER−) ([4]; concentration that reduces cell growth by 50%, 3 days in culture, SRB, listed as Neo-tashinlactone (1)): > 20 mg/L | activity against other cell lines in the panel (in words) ([5]; at concentrations up to 10 μg/mL): insignificant activity | fold more potent than tamoxifen citrate [6, 16]: 10 fold | fold more selective than tamoxifen citrate [6, 16]: 20 fold | times better activity than compound 2a and tamoxifen ([6]; against ER+ cell lines): 10 times | Percent inhibition at the test concentration (bracketed value), A549 ([7]; at 20 μg/mL (Table 1)): 10% | ED50, A549 [7, 15]: > 20 mg/L | Percent inhibition at the test concentration (bracketed value), MCF-7 ([8]; at 2.5 μg/mL (Table 1)): 57% | ED50, MCF-7 (ER+) [8]: 0.6 mg/L and 0.60 mg/L | ED50, MCF-7 (ER+) ([8]; listed as Neo-tashinlactone (1)): < 2.5 mg/L | concentration at which active against MCF-7 ([8]; first screen, Example 1): 0.6˜1.2 μg/mL | Percent inhibition at the test concentration (bracketed value), KB-VIN ([9]; at 10 μg/mL (Table 2)): 9% | ED50, KB-VIN [9]: > 10 mg/L | ED50, HS 587-T (ER−) ([10]; printed HS587-1 in Table 4): 16 mg/L and 16.0 mg/L | Percent inhibition at the test concentration (bracketed value), KB ([11]; at 10 μg/mL (Table 2)): 18% | ED50, KB [11]: > 10 mg/L | activity against SK-BR-3 (in words) ([12]; HER-2-overexpressing breast cancer cell line): active | ED50, SK-BR-3 (ER−, HER2+) [12]: 0.2 mg/L and 0.18 mg/L | fold more sensitive, SK-BR-3 versus MCF-7 ([12]; ratio of sensitivity of the two cell lines): 3 fold | ED50, ZR-75-1 (ER+) [13]: 0.25 mg/L (≈ 0.946 µM) | ED50, PC-3 [14]: 10 mg/L (≈ 37.8 µM)

COc1cc2c3occ(C)c3c(=O)oc2c2ccccc12 [Compound 2e, 6-Methoxy-17-methyl-11,15-dioxa-cyclopenta[a]phenanthren-12-one]
IC50 [2]: 9 mg/L (≈ 32.1 µM) | IC50 [3]: 9.5 mg/L (≈ 33.9 µM) | overall cytotoxic activity (in words) ([5]; several human tumor cell lines, Table 4): did not show strong activity | IC50 [8]: 5 mg/L (≈ 17.8 µM) | IC50 [11]: > 10 mg/L | IC50 [12]: 8.6 mg/L (≈ 30.7 µM) | IC50 [13]: > 10 mg/L | melting point: 203 to 205 °C

CC/C(=C(\c1ccccc1)c1ccc(OCCN(C)C)cc1)c1ccccc1 [TAM, tamoxifen citrate, reference compound]
ED50, LN-CaP [1]: 6 mg/L | IC50 [2]: 4 mg/L | ED50, SW620 [2]: 4.0 mg/L | IC50 [3]: 7 mg/L | ED50, A431 [3]: 7.0 mg/L | IC50 ([4]; Homo sapiens, MDA-MB-231, 72 h, concentration that reduces cell growth by 50%, 3 days in culture, SRB, read-out: ED50, MDA-MB-231 (ER−)): 8 mg/L | ED50, MDA-MB-231 (ER−) ([4]; concentration that reduces cell growth by 50%, 3 days in culture, SRB, listed as Tamoxifen citrate): 7.0 mg/L | IC50 [8]: 5 mg/L | ED50, MCF-7 (ER+) [8]: 5.0 mg/L | ED50, MCF-7 (ER+) ([8]; listed as Tamoxifen citrate): 5.0 mg/L | ED50, KB-VIN [9]: 9 mg/L | ED50, HS 587-T (ER−) ([10]; printed HS587-1 in Table 4): 9 mg/L and 7.0 mg/L | ED50, HS 587-T (ER−) ([10]; printed HS587-1 in Table 4, listed as Tamoxifen citrate): 8.5 mg/L | IC50 [11]: 9 mg/L | ED50, KB [11]: 9.0 mg/L | IC50 [12]: 5 mg/L | ED50, SK-BR-3 (ER−, HER2+) [12]: 5.0 mg/L | IC50 [13]: 5 mg/L | ED50, ZR-75-1 (ER+) ([13]; listed as Tamoxifen citrate): 3.6 mg/L | ED50, PC-3 [14]: 10 mg/L
